From ChEMBL document CHEMBL1681773, “Toxic polyketides produced by Fusarium sp., an endophytic fungus isolated from Melia azedarach” (Bioorg Med Chem Lett, 2011)

Test: Toxicity in brine shrimps larvae assessed as mortality at 10 ug/ml after 24 hrs
Format: organism-based
Details: artemia, brine shrimp larvae; read-out: Activity

| SMILES | mortality at 24 h, 10 ug/ml |
| --- | --- |
| C[C@H](O)C/C=C/CCCCc1cc2cc(O)cc(O)c2c(=O)o1 [FUSARIUMIN] | 78.2% |
| C[C@H]1C/C=C/[C@@H](O)[C@@H](O)CC/C=C/c2cc(O)cc(O)c2C(=O)O1 [AIGIALOMYCIN D] | 76.7% |
| C[C@@H]1C[C@@H](O)/C=C\[C@H](O)CCC(=O)Cc2c(Cl)c(O)cc(O)c2C(=O)O1 [POCHONIN N] | 82.8% |
